Measured values from patent publication US12331026B2 (NiKang Therapeutics, Inc., priority 2022, dated 2025).

Molecular target: T1, CDK2 (Homo sapiens, UniProt P24941)
T1 construct: endogenous in cells; host or cells: OVCAR3 cells
Experiment: Phospho-RB measurement in OVCAR3 cells (HTRF phospho-RB S807/811)
Type: cell-based
Conditions: phosphorylation of RB protein at S807/811, HTRF, 24 h compound treatment, 0.3 to 10,000 nM, read-out: pRb (uM)
Description: The ability of compounds of Formula (I) to inhibit CDK2 was determined in OVCAR3 cells. Phosphorylation of RB protein at S807/811 were measured using HTRF phospho-RB cellular kits (Cat #64RBS807PEG) from Cisbio.
On Day 1, OVCAR3 cells were seeded into 96-well tissue-culture treated plates at 20,000 cells/well in 200 μL and incubated overnight at 37° C. in CO2 atmosphere. On Day 2, the cells were treated with test compounds at concentrations from 0.3 to 10,000 nM using HP D300 digital dispenser. Twenty-four hours after compound treatment, cell culture media was removed by flicking the plate and tapping the plate against clean paper towel. Immediately 30 μL 1× lysis buffer was supplemented from the kit and the plate was incubated at room temperature on shaker for 30 min. After homogenization by pipetting up and down, 8 μL cell lysate from 96-well cell culture plate was transferred to 384-well small volume white detection plate. 2 μL premixed detection solution was added and the plate was covered with sealer. To prepare the detection solution, d2 conjugated-phospho-RB antibody and Eu-cryptate conjugated phosphor-RB antibody were diluted into detection buffer following manufacturer's instruction.
Detection plates were incubated for 4 h at room temperature and read on ClarioStar (BMG Labtech) in TR-FRET mode ([…]). The TR-FRET ratio (665 nM1/620 nM) was plotted against the compound concentration and normalized to DMSO controls. Half maximal inhibition concentration (IC50) values are calculated with a four-parameter logistic fit using GraphPad Prism (version 8; La Jolla, CA).

Row | IC50 | Compound
1 | 0.39 µM | O=S1(=O)CC2(CC(Nc3nccc(-c4sc(C56CC(F)(C5)C6)nc4-c4cccc(NS(=O)(=O)c5c(F)cccc5F)c4F)n3)C2)C1 [Example 7, N-(3-(5-(2-((2,2-dioxido-2-thiaspiro[3.3]heptan-6-yl)amino)pyrimidin-4-yl)-2-(3-fluorobicyclo[1.1.1]pentan-1-yl)thiazol-4-yl)-2-fluorophenyl)-2,6-difluorobenzenesulfonamide]
2 | 0.12 µM | O=S1(=O)CC2(CC(Nc3nccc(-c4sc(C56CC(C5)C6)nc4-c4cccc(NS(=O)(=O)c5c(F)cccc5F)c4F)n3)C2)C1 [Example 3, N-(3-(2-(bicyclo[1.1.1]pentan-1-yl)-5-(2-((2,2-dioxido-2-thiaspiro[3.3]heptan-6-yl)amino)pyrimidin-4-yl)thiazol-4-yl)-2-fluorophenyl)-2,6-difluorobenzenesulfonamide]
3 | 3.2 µM | CN1CCC(C)(c2nc(-c3cccc(NS(=O)(=O)c4c(F)cccc4F)c3F)c(-c3ccnc(NC4CC5(C4)CS(=O)(=O)C5)n3)s2)CC1 [Example 15, N-(3-(2-(1,4-dimethylpiperidin-4-yl)-5-(2-((2,2-dioxido-2-thiaspiro[3.3]heptan-6-yl)amino)pyrimidin-4-yl)thiazol-4-yl)-2-fluorophenyl)-2,6-difluorobenzenesulfonamide]
4 | 0.13 µM | O=S1(=O)CC2(CC(Nc3nccc(-c4sc(C5(C(F)F)CC5)nc4-c4cccc(NS(=O)(=O)c5c(F)cccc5F)c4F)n3)C2)C1 [Example 16, N-(3-(2-(1-(difluoromethyl)cyclopropyl)-5-(2-((2,2-dioxido-2-thiaspiro[3.3]heptan-6-yl)amino)pyrimidin-4-yl)thiazol-4-yl)-2-fluorophenyl)-2,6-difluorobenzenesulfonamide]
5 | 18.1 µM | CC1(c2nc(-c3cccc(NS(=O)(=O)c4c(F)cccc4F)c3F)c(-c3ccnc(NC4CC5(C4)CS(=O)(=O)C5)n3)s2)CCNCC1 [Example 14, N-(3-(5-(2-((2,2-dioxido-2-thiaspiro[3.3]heptan-6-yl)amino)pyrimidin-4-yl)-2-(4-methylpiperidin-4-yl)thiazol-4-yl)-2-fluorophenyl)-2,6-difluorobenzenesulfonamide]

Continued, molecule first:

Row | Compound | IC50
6 | O=S1(=O)C[C@@H]2[C@H](C1)[C@H]2Nc1nccc(-c2sc(C3(C(F)F)CC3)nc2-c2cccc(NS(=O)(=O)c3c(F)cccc3C(F)(F)F)c2F)n1 [Example 128, N-(3-(2-(1-(difluoromethyl)cyclopropyl)-5-(2-(((1R,5S,6r)-3,3-dioxido-3-thiabicyclo[3.1.0]hexan-6-yl)amino)pyrimidin-4-yl)thiazol-4-yl)-2-fluorophenyl)-2-fluoro-6-(trifluoromethyl)-benzenesulfonamide] | 0.05 µM
7 | O=S1(=O)C[C@@H]2[C@H](C1)[C@H]2Nc1nccc(-c2sc(C3(C(F)F)CC3)nc2-c2cccc(NS(=O)(=O)c3c(F)cccc3F)c2F)n1 [Example 98, N-(3-(2-(1-(difluoromethyl)cyclopropyl)-5-(2-(((1R,5S,6r)-3,3-dioxido-3-thiabicyclo[3.1.0]hexan-6-yl)amino)pyrimidin-4-yl)thiazol-4-yl)-2-fluorophenyl)-2,6-difluorobenzenesulfonamide] | 0.13 µM
8 | O=S1(=O)CC2(CC(Nc3nccc(-c4sc(C56CC(C5)C6)nc4-c4cccc(NS(=O)(=O)c5c(F)cccc5C(F)(F)F)c4F)n3)C2)C1 [Example 26, N-(3-(2-(bicyclo[1.1.1]pentan-1-yl)-5-(2-((2,2-dioxido-2-thiaspiro[3.3]heptan-6-yl)amino)pyrimidin-4-yl)thiazol-4-yl)-2-fluorophenyl)-2-fluoro-6-(trifluoromethyl)benzenesulfonamide] | 0.016 µM
9 | O=S1(=O)C[C@@H]2[C@H](C1)[C@@H]2Nc1nccc(-c2sc(C34CCC(CC3)C4)nc2-c2cccc(NS(=O)(=O)c3c(F)cccc3F)c2F)n1 [Example 73, N-(3-(2-(bicyclo[2.2.1]heptan-1-yl)-5-(2-(((1R,5S,6s)-3,3-dioxido-3-thiabicyclo[3.1.0]hexan-6-yl)amino)pyrimidin-4-yl)thiazol-4-yl)-2-fluorophenyl)-2,6-difluorobenzenesulfonamide] | 0.6 µM
10 | C[C@H]1CNC[C@H](C)N1c1nc(-c2cccc(NS(=O)(=O)c3c(F)cccc3F)c2F)c(-c2ccnc(NC3CC4(C3)CS(=O)(=O)C4)n2)s1 [Example 62, N-(3-(2-((2S,6S)-2,6-dimethylpiperazin-1-yl)-5-(2-((2,2-dioxido-2-thiaspiro[3.3]heptan-6-yl)amino)pyrimidin-4-yl)thiazol-4-yl)-2-fluorophenyl)-2,6-difluorobenzenesulfonamide] | 3.86 µM
11 | O=S1(=O)C[C@@H]2[C@H](C1)[C@H]2Nc1nccc(-c2sc(N3C4CCC3CC(F)(F)C4)nc2-c2cccc(NS(=O)(=O)c3c(F)cccc3F)c2F)n1 [Example 115, N-(3-(2-(3,3-difluoro-8-azabicyclo[3.2.1]octan-8-yl)-5-(2-(((1R,5S,6r)-3,3-dioxido-3-thiabicyclo[3.1.0]hexan-6-yl)amino)pyrimidin-4-yl)thiazol-4-yl)-2-fluorophenyl)-2,6-difluorobenzenesulfonamide] | 0.05 µM
12 | O=S1(=O)CC2(CC(Nc3nccc(-c4sc(C56CC(C5)C6)nc4-c4cccc(NS(=O)(=O)c5c(Cl)cccc5Cl)c4F)n3)C2)C1 [Example 31, N-(3-(2-(bicyclo[1.1.1]pentan-1-yl)-5-(2-((2,2-dioxido-2-thiaspiro[3.3]heptan-6-yl)amino)pyrimidin-4-yl)thiazol-4-yl)-2-fluorophenyl)-2,6-dichlorobenzenesulfonamide] | 0.07 µM
13 | CC1CC(C)N1c1nc(-c2cccc(NS(=O)(=O)c3c(F)cccc3F)c2F)c(-c2ccnc(NC3CC4(C3)CS(=O)(=O)C4)n2)s1 (stereo not drawn) [Example 71, N-(3-(2-(2,4-dimethylazetidin-1-yl)-5-(2-((2,2-dioxido-2-thiaspiro[3.3]heptan-6-yl)amino)pyrimidin-4-yl)thiazol-4-yl)-2-fluorophenyl)-2,6-difluorobenzenesulfonamide] | 18.9 µM
14 | O=S1(=O)C[C@@H]2[C@H](C1)[C@H]2Nc1nccc(-c2sc(N3C4CCC3CN(C3CC(F)(F)C3)C4)nc2-c2cccc(NS(=O)(=O)c3c(F)cccc3C(F)(F)F)c2F)n1 [Example 109, N-(3-(2-(3-(3,3-difluorocyclobutyl)-3,8-diazabicyclo[3.2.1]octan-8-yl)-5-(2-(((1R,5S,6r)-3,3-dioxido-3-thiabicyclo[3.1.0]hexan-6-yl)amino)pyrimidin-4-yl)thiazol-4-yl)-2-fluorophenyl)-2-fluoro-6-(trifluoromethyl)benzenesulfonamide] | 0.09 µM
15 | O=S1(=O)C[C@@H]2[C@H](C1)[C@H]2Nc1nccc(-c2sc(N3C4CCC3CN(C3CC3)C4)nc2-c2cccc(NS(=O)(=O)c3c(F)cccc3C(F)(F)F)c2F)n1 [Example 130, N-(3-(2-(3-cyclopropyl-3,8-diazabicyclo[3.2.1]octan-8-yl)-5-(2-(((1R,5S,6r)-3,3-dioxido-3-thiabicyclo[3.1.0]hexan-6-yl)amino)-pyrimidin-4-yl)thiazol-4-yl)-2-fluorophenyl)-2-fluoro-6-(trifluoromethyl)benzenesulfonamide] | 0.45 µM
